Source: ChEMBL document CHEMBL5030542, “Pillar[5]arene-Based Polycationic Glyco[2]rotaxanes Designed as Pseudomonas aeruginosa Antibiofilm Agents” (J Med Chem, 2021)
Activity calls are given as the source filed them. No cut-off for these calls is given here.

What was measured:
Pseudomonas aeruginosa [1] = experiment: Binding affinity to recombinant Pseudomonas aeruginosa LecA expressed in Escherichia coli assessed as change in enthalpy by isothermal titration calorimetry
[2] = Binding affinity to recombinant Pseudomonas aeruginosa LecA expressed in Escherichia coli assessed as dissociation constant by isothermal titration calorimetry
Pseudomonas aeruginosa [3] = experiment: Binding affinity to recombinant Pseudomonas aeruginosa LecA expressed in Escherichia coli assessed as change in entropy by isothermal titration calorimetry
Pseudomonas aeruginosa [4] = experiment: Binding affinity to recombinant Pseudomonas aeruginosa LecA expressed in Escherichia coli assessed as gibbs free energy change by isothermal titration calorimetry
Pseudomonas aeruginosa [5] = experiment: Anti-bioflim activity against Pseudomonas aeruginosa PAO1 assessed as inhibition of bioflim formation incubated for 24 hrs by crystal violet staining based assay; assay type: functional
Pseudomonas aeruginosa [6] = experiment: Anti-bioflim activity against Pseudomonas aeruginosa PAO1 assessed as inhibition of bioflim formation measured at MBIC50 concentration incubated for 24 hrs by crystal violet staining based assay; assay type: functional
[7] = target: Fucose-binding lectin PA-IIL (Pseudomonas aeruginosa (strain ATCC 15692 / DSM 22644 / CIP 104116 / JCM14847 / LMG 12228 / 1C / PRS 101 / PAO1)) (UniProt Q9HYN5); experiment: Binding affinity to recombinant Pseudomonas aeruginosa LecB expressed in Escherichia coli assessed as gibbs free energy change by isothermal titration calorimetry
[8] = target: Fucose-binding lectin PA-IIL (Pseudomonas aeruginosa (strain ATCC 15692 / DSM 22644 / CIP 104116 / JCM14847 / LMG 12228 / 1C / PRS 101 / PAO1)) (UniProt Q9HYN5); experiment: Binding affinity to recombinant Pseudomonas aeruginosa LecB expressed in Escherichia coli assessed as change in enthalpy by isothermal titration calorimetry
Pseudomonas aeruginosa [9] = experiment: Antibacterial activity against Pseudomonas aeruginosa PAO1 assessed as inhibition of bacterial growth for complete inhibition of bacterial growth incubated for 24 hrs; assay type: functional
[10] = target: Fucose-binding lectin PA-IIL (Pseudomonas aeruginosa (strain ATCC 15692 / DSM 22644 / CIP 104116 / JCM14847 / LMG 12228 / 1C / PRS 101 / PAO1)) (UniProt Q9HYN5); experiment: Binding affinity to recombinant Pseudomonas aeruginosa LecB expressed in Escherichia coli assessed as change in entropy by isothermal titration calorimetry
[11] = target: Fucose-binding lectin PA-IIL (Pseudomonas aeruginosa (strain ATCC 15692 / DSM 22644 / CIP 104116 / JCM14847 / LMG 12228 / 1C / PRS 101 / PAO1), UniProt Q9HYN5); experiment: Binding affinity to recombinant Pseudomonas aeruginosa lecB expressed in Escherichia coli assessed as dissociation constant by isothermal titration calorimetry
Chain of Fucose-binding lectin PA-IIL (Q9HYN5 whole entry): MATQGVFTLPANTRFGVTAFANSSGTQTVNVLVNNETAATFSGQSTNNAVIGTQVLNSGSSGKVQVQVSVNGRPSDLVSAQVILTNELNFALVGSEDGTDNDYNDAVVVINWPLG

Chain of Fucose-binding lectin PA-IIL (Pseudomonas aeruginosa (strain ATCC 15692 / DSM 22644 / CIP 104116 / JCM14847 / LMG 12228 / 1C / PRS 101 / PAO1)) (Q9HYN5 as listed by the source): as the sequence (Q9HYN5 whole entry) above

Row | SMILES | deltaH (Pseudomonas aeruginosa [1]) [kcal/mol] | Kd [2] [nM] | deltaS (Pseudomonas aeruginosa [3]) [kcal/mol] | deltaG (Pseudomonas aeruginosa [4]) [kcal/mol] | MBIC50 (Pseudomonas aeruginosa [5]) [µM] | inhibition (INH) (Pseudomonas aeruginosa [6]) [%] | deltaG [7] [kcal/mol] | deltaH [8] [kcal/mol] | -TΔS (Pseudomonas aeruginosa [3]) [kcal/mol] | MBIC50 (Pseudomonas aeruginosa [6]) | MIC (Pseudomonas aeruginosa [9]) [µM] | deltaS [10] [kcal/mol] | Kd [11] [nM]
1 | OC[C@H]1O[C@@H](OCc2cn(CCOc3cc4c(OCCn5cc(CO[C@@H]6O[C@H](CO)[C@H](O)[C@H](O)[C@H]6O)nn5)cc3Cc3cc(OCCn5cc(CO[C@@H]6O[C@H](CO)[C@H](O)[C@H](O)[C@H]6O)nn5)c(cc3OCCn3cc(CO[C@@H]5O[C@H](CO)[C@H](O)[C@H](O)[C@H]5O)nn3)Cc3cc(OCCn5cc(CO[C@@H]6O[C@H](CO)[C@H](O)[C@H](O)[C@H]6O)nn5)c(cc3OCCn3cc(CO[C@@H]5O[C@H](CO)[C@H](O)[C@H](O)[C@H]5O)nn3)Cc3cc(OCCn5cc(CO[C@@H]6O[C@H](CO)[C@H](O)[C@H](O)[C@H]6O)nn5)c(cc3OCCn3cc(CO[C@@H]5O[C@H](CO)[C@H](O)[C@H](O)[C@H]5O)nn3)Cc3cc(OCCn5cc(CO[C@@H]6O[C@H](CO)[C@H](O)[C@H](O)[C@H]6O)nn5)c(cc3OCCn3cc(CO[C@@H]5O[C@H](CO)[C@H](O)[C@H](O)[C@H]5O)nn3)C4)nn2)[C@H](O)[C@@H](O)[C@H]1O | -37.5 | 145 | 28.2 | -9.35 | – | – | – | – | – | – | – | – | –
2 | NC[C@H]1O[C@H](O[C@H]2[C@H](O)[C@@H](O[C@H]3O[C@H](CO)[C@@H](O)[C@H](N)[C@H]3O)[C@H](N)C[C@@H]2N)[C@H](N)C[C@@H]1O [TOBRAMYCIN] | – | – | – | – | 2 | 92 | – | – | – | – | – | – | –
3 | C[C@@H]1O[C@@H](OCCOCCn2cc(COCC(COCc3cn(CCOCCO[C@@H]4O[C@@H](C)[C@@H](O)[C@@H](O)[C@@H]4O)nn3)N=[N+]=[N-])nn2)[C@@H](O)[C@H](O)[C@@H]1O.OC[C@H]1O[C@@H](OCc2cn(CCCOc3cc4c(OCCn5cc(CO[C@@H]6O[C@H](CO)[C@H](O)[C@H](O)[C@H]6O)nn5)cc3Cc3cc(OCCn5cc(CO[C@@H]6O[C@H](CO)[C@H](O)[C@H](O)[C@H]6O)nn5)c(cc3OCCn3cc(CO[C@@H]5O[C@H](CO)[C@H](O)[C@H](O)[C@H]5O)nn3)Cc3cc(OCCn5cc(CO[C@@H]6O[C@H](CO)[C@H](O)[C@H](O)[C@H]6O)nn5)c(cc3OCCn3cc(CO[C@@H]5O[C@H](CO)[C@H](O)[C@H](O)[C@H]5O)nn3)Cc3cc(OCCn5cc(CO[C@@H]6O[C@H](CO)[C@H](O)[C@H](O)[C@H]6O)nn5)c(cc3OCCn3cc(CO[C@@H]5O[C@H](CO)[C@H](O)[C@H](O)[C@H]5O)nn3)Cc3cc(OCCCn5cc(CO[C@@H]6O[C@H](CO)[C@H](O)[C@H](O)[C@H]6O)nn5)c(cc3OCCn3cc(CO[C@@H]5O[C@H](CO)[C@H](O)[C@H](O)[C@H]5O)nn3)C4)nn2)[C@H](O)[C@@H](O)[C@H]1O | -25.1 | 646 | – | -8.46 | >150 | – | -8.63 | -14.7 | 16.6 | inactive | > 150 | 6.07 | 474
4 | CO[C@@H]1O[C@H](CO)[C@H](O)[C@H](O)[C@H]1O | -4.54 | 55700 | – | -5.81 | – | – | – | – | – | – | – | – | –
